Tests used:
[1] = system: p53; experiment: Immunodetection of p53 and p21 during culture; type: cell-based, human; conditions: keratinocytes cultured with Y-27632
Procedure: (§1) Proteins were extracted in 2% sodium dodecyl sulfate (SDS), 50 mM Tris-HCl (pH 6.8), 10% glycerol supplemented with inhibitors Complete and PhosphoSTOP (Roche, Indianapolis, Ind.). Protein samples were resolved on NuPage gels, electrotransferred to Immobilon-P membrane (Millipore, Billerica, Mass.), and probed with the relevant antibodies before detection by chemiluminescence. Monoclonal antibody against p53 (DO-1) was obtained from Santa Cruz Biotechnology (Santa Cruz, Calif.). Monoclonal antibody against α-tubulin (B-5-1-2) was obtained from Sigma-Aldrich. Polyclonal antibodies against Myc (N-262), p21 (C-19), and p16 (C-20) were obtained from Santa Cruz Biotechnology.

[2] = system: p53 pathway; experiment: Growth arrest assay (DNA damage response to 0.5 nM actinomycin D); type: cell-based, human; conditions: 0.5 nM actinomycin D 24 hours; Y-27632-treated HFKs at P122; FIG. 12B
Procedure: Keratinocytes (1-2×10^6) were seeded on a 10 cm plate. Forty-eight hours later they were treated with 0.5 nM actinomycin D for 24 hours. Protein extracts were prepared, as described above, and analyzed for p53 and p21 protein levels.

[3] = system: human vaginal keratinocytes (HVK); experiment: Long-term culture / immortalization of primary human vaginal keratinocytes on feeder cells; type: cell-based; conditions: 10 μM Y-27632; FIG. 9
Procedure: (§2) The HPV18 cell line was established by introducing the HPV18 genome into primary HFKs using the Amaxa human keratinocyte nucleofection system. Primary human cervical keratinocytes (HCKs), human vaginal keratinocytes (HVKs), the HPV18 cell lines and the HPV31 positive cell line (CIN-612 9E) were grown in the presence or absence of 10 μM Y-27632 (Alexis Biochemicals), as indicated. Cells were subcultured by removing the fibroblast feeder cells with versene and keratinocytes were collected by trypsinization. At each pass, 2×10^5 cells were plated on a 10 cm plate of J2 feeder cells. Population doubling was calculated as: PD=3.32(log(# cells harvested/# cells seeded)). Immunodetection

[4] = system: human foreskin keratinocytes (HFK); experiment: Long-term culture / immortalization of primary human foreskin keratinocytes on irradiated J2 feeder cells; type: cell-based
Procedure: Primary human foreskin keratinocytes (HFKs) were isolated and pooled from neonatal human foreskins from seven donors and grown in F medium (3: 1(v/v) F-12 Nutrient Mixture: DMEM, 5% FBS, 0.4 μg/ml hydrocortisone, 5 μg/ml insulin, 8.4 ng/ml cholera toxin, 10 ng/ml EGF, and 24 μg/ml adenine) (Jeon et al., Proc. Natl. Acad. Sci. USA 92:1654-1658, 1995) in the presence of irradiated J2 feeder cells. HFKs were divided into 10 cm plates, containing F-media with or without the addition of 10 μM Y-27632 (Alexis Biochemicals, San Diego, Calif.).
Human foreskin keratinocytes (HFKs) were isolated from pools of at least seven neonatal foreskins and grown in 154 medium supplemented with Human
Keratinocyte Growth Supplement and Gentamicin/Amphotericin (Invitrogen, Carlsbad, Calif.) or in F medium [3:1 (v/v) F-12 (Ham)-DMEM, 5% FBS, 0.4 μg/ml hydrocortisone, 5 μg/ml insulin, 8.4 ng/ml cholera toxin, 10 ng/ml EGF, 24 μg/ml adenine, 100 U penicillin, 100 μg/ml streptomycin (Invitrogen, cat no. 15140-148)] in the presence of irradiated 3T3 J2 feeder cells (Jeon et al., J. Virol. 69: 2989-2997, 1995).
as §2

[5] = system: airway epithelial cells; conditions: Moore et al. 2004; cited from earlier work
[6] = system: foreskin keratinocytes; experiment: Foreskin keratinocytes grown without fibroblast feeder cells, on plastic, serum-free medium; type: cell-based, human; conditions: no fibroblast feeder cells
Procedure: Culturing keratinocytes in the presence of fibroblast feeder cells increases the lifespan of keratinocytes (Fu et al., Cancer Res. 63: 7815-7824, 2003; Rheinwald et al., Mol. Cell Biol. 22: 5157-5172, 2002) and might contribute to the observed immortalization by Y-27632. Therefore, the effect of Y-27632 on foreskin keratinocytes grown in the absence of fibroblast feeder cells, cultured on plastic and in serum-free medium was analyzed. […] Therefore, co-culture with feeder fibroblasts is required in concert with ROCK inhibition to immortalize keratinocytes.

[7] = system: Myc; experiment: Immunodetection of Myc; type: cell-based, human
Procedure: as §1

[8] = system: foreskin keratinocyte line (strain a); experiment: Karyotype analysis of immortalized cells; type: cell-based, human; conditions: HFK strain a, 95 passages in Y-27632
Procedure: This was conducted by Molecular Diagnostic Services, Inc. San Diego, Calif. Metaphase spreads were prepared and stained to observe chromosomal G bands.
Twenty metaphase spreads of each cell line was analyzed and five complete karyotypes were prepared from each.

[9] = system: p16^INK4a; experiment: Immunodetection of p16INK4a; type: cell-based, human
Procedure: as §1

[10] = system: human cervical keratinocytes (HCK); experiment: Long-term culture / immortalization of primary human cervical keratinocytes on feeder cells; type: cell-based; conditions: 10 μM Y-27632; FIG. 9
Procedure: as §2

[11] = system: human embryonic stem cells; conditions: cited from earlier work
[12] = 10 μM Y-27632, Example 2, FIG. 14

CC(N)[C@H]1CC[C@H](C(=O)Nc2ccncc2)CC1 (single isomer, unassigned; (+)) [Y-27632, (+)-trans-N-(4-Pyridyl)-4-(1-aminoethyl)-cyclohexanecarboxamide]
p21 induction [1]: not induced
p53 protein levels [1]: gradually increase
DNA damage response (p53 and p21 upregulation) [2]: normal DNA damage response
bypass of senescence [3]: efficiently bypassed senescence with no observed decline in growth rate
cellular proliferation [3]: dramatic increase in cellular proliferation
continued division / growth rate beyond senescence of untreated cells (about 15 passages) ([4]; 10 μM Y-27632, Example 1): continued to divide without any decrease in growth rate
number of times treated cells were passed ([4]; 10 μM Y-27632, Example 1): at least 82 times
proliferation rate versus untreated cells ([4]; 10 μM Y-27632, Example 1): proliferated at a rate that exceeded the untreated cells almost immediately
time in continuous culture ([4]; 10 μM Y-27632, Example 1): over 10 months
passages in culture [4, 12]: up to 150 passages
period of culture [4, 12]: 500 days
bypass of senescence ([4]; 10 μM Y-27632, FIG. 9): efficiently bypassed senescence with no observed decline in growth rate
cellular proliferation ([4]; 10 μM Y-27632, FIG. 9): dramatic increase in cellular proliferation
population doubling (PD) to which cells were cultured, considered to be immortal ([4]; +Y-27632 (10 μM), HFK strain b): PD199
growth after withdrawal of Y-27632 ([4]; withdrawn at passage 48, after 196 days in culture): continued to grow unchecked with only a gradual slowing in the rate of population doubling
effect on airway epithelial cells [5]: induces membrane ruffling, loss of actin stress fibers and apoptosis
proliferation in the absence of feeder cells [6]: somewhat increased proliferation
bypass of senescence in the absence of feeder cells ([6]; repeated experiments): did not bypass senescence
Myc protein levels ([7]; immediately after culture with Y-27632, HFK, HCK, HVK, FIG. 12A): induced transiently
level of Myc ([7]; very late passages (p107), FIG. 16): equivalent to that of an HPV31-containing cell line
karyotype of immortalized cells [8]: identical to that of the donor cells
p16^INK4a levels ([9]; HPV immortalized cells): no effect
p16^INK4a mRNA and protein expression ([9]; after long-term culture with Y-27632, FIG. 12A): still observed, albeit at a low level
bypass of senescence [10]: efficiently bypassed senescence with no observed decline in growth rate
cellular proliferation [10]: dramatic increase in cellular proliferation
survival rate of human embryonic stem cells following cryopreservation ([11]; Li et al. 2008): enhances the survival rate
survival of embryonic stem cells ([11]; Watanabe et al. 2007): greatly increase the survival of embryonic stem cells
